According to US4985453A, “Parabanic acid derivatives and pharmaceutical compositions thereof” (Nippon Zoki Pharmaceutical Co., Ltd., priority 1988, dated 1991):

Test system: not listed separately
Test: Acute toxicity test (oral, LD50)
Details: rat, in vivo, Wistar-strain male rats, groups of 8, death rate of 7 days
Method: The test compounds of the present invention were orally administered to groups of 8 Wistar-strain male rats, and the LD50 values were calculated based on the death rate of 7 days.

`O=C(O)CN1C(=O)C(=O)N(Cc2ccc(Br)cc2)C1=O` [Compound 44, 1-(4-Bromobenzyl)-3-carboxymethylparabanic acid] and `O=C(O)CN1C(=O)C(=O)N(Cc2ccc(Cl)c(Cl)c2)C1=O` [Compound 47, 3-Carboxymethyl-1-(3,4-dichlorobenzyl)parabanic acid] cannot be ordered by LD50 at 168 h: over 5000 mg/kg for the first, over 2000 mg/kg for the second.

`O=C(O)CN1C(=O)C(=O)N(Cc2cccc([N+](=O)[O-])c2)C1=O` [Compound 48, 3-Carboxymethyl-1-(3-nitrobenzyl)parabanic acid] gave an LD50 at 168 h of over 5000 mg/kg.

Molecular target: T1, aldose reductase prepared from rat lenses (Rattus norvegicus, UniProt P07943)
T1 construct: aldose reductase prepared from rat lenses; from tissue; host or cells: rat lens
Test: Aldose reductase inhibitory activity
Format: biochemical
Details: at 5×10^-7 M; glyceraldehyde substrate, NADPH, absorbance at 340 nm; read-out: Inhibitory rate (%) against aldose reductase
Method: Aldose reductase inhibitory activity of the compound of the present invention was evaluated by using aldose reductase prepared from rat lenses. The test compound was added to the reaction mixture consisting of phosphate buffer, NADPH and aldose reductase. After stability of absorbance was confirmed for a few minutes, glyceraldehyde was added to the reaction mixture and then the decrease in absorbance at 340 nm with the passage of time was measured to assay the inhibitory activity of the test compound against aldose reductase.
The inhibitory rate (%) against aldose reductase in the table is the values at 5×10^-7 M of the each test compound.

Going from `CCOC(=O)CN1C(=O)C(=O)N(Cc2cccc([N+](=O)[O-])c2)C1=O` [Compound 19, Ethyl 1-(3-nitrobenzyl)-2,4,5-trioxoimidazolidine-3-acetate] to `O=C(O)CN1C(=O)C(=O)N(Cc2cccc([N+](=O)[O-])c2)C1=O` [Compound 48, 3-Carboxymethyl-1-(3-nitrobenzyl)parabanic acid], the inhibition at 0.5 µM rises from 31% to 75%.

Going from `CCCCCCN1C(=O)C(=O)N(CC(=O)O)C1=O` [Compound 33, 3-Carboxymethyl-1-hexylparabanic acid] to `O=C(O)CN1C(=O)C(=O)N(CCCCc2ccccc2)C1=O` [Compound 57, 3-Carboxymethyl-1-(4-phenylbutyl)parabanic acid], the inhibition at 0.5 µM falls from 35% to 25%.

First: CC1CCC(N2C(=O)C(=O)N(CC(=O)O)C2=O)CC1 (stereo not shown) [Compound 34, 3-Carboxymethyl-1-(4-methylcyclohexyl)parabanic acid]
Second: O=C(O)CN1C(=O)NC(=O)C1=O [Compound 60, 1-carboxymethylparabanic acid]
The inhibition at 0.5 µM of the first is higher: 49% for the first, 31% for the second.

Going from `Cc1ccccc1CN1C(=O)C(=O)N(CC(=O)O)C1=O` [Compound 36, 3-Carboxymethyl-1-(2-methylbenzyl)parabanic acid] to `O=C(O)CN1C(=O)C(=O)N(Cc2ccccc2Cl)C1=O` [Compound 41, 3-Carboxymethyl-1-(2-chlorobenzyl)parabanic acid], the inhibition at 0.5 µM falls from 41% to 32%.

First: Cc1ccc(CN2C(=O)C(=O)N(CC(=O)O)C2=O)cc1 [Compound 37, 3-Carboxymethyl-1-(4-methylbenzyl)parabanic acid]
Second: Cc1ccc(CCN2C(=O)C(=O)N(CC(=O)O)C2=O)cc1 [Compound 50, 3-Carboxymethyl-1-(2-(4-methylphenyl)ethyl)parabanic acid]
The inhibition at 0.5 µM of the first is lower: 30% for the first, 42% for the second.

First: COc1cccc(CN2C(=O)C(=O)N(CC(=O)O)C2=O)c1 [Compound 39, 3-Carboxymethyl-1-(3-methoxybenzyl)parabanic acid]
Second: O=C(O)CN1C(=O)C(=O)N(Cc2cccc(Cl)c2)C1=O [Compound 42, 3-Carboxymethyl-1-(3-chlorobenzyl)parabanic acid]
The inhibition at 0.5 µM of the first is higher: 44% for the first, 31% for the second.

Compared with `O=C(O)CN1C(=O)C(=O)N(Cc2ccc(Cl)cc2)C1=O` [Compound 43, 3-Carboxymethyl-1-(4-chlorobenzyl)parabanic acid], `O=C(O)CN1C(=O)C(=O)N(Cc2ccc(Br)cc2)C1=O` [Compound 44, 1-(4-Bromobenzyl)-3-carboxymethylparabanic acid] is higher in inhibition at 0.5 µM: 56% for the first, 65% for the second.

First: O=C(O)CN1C(=O)C(=O)N(Cc2ccc(Cl)cc2Cl)C1=O [Compound 46, 3-Carboxymethyl-1-(2,4-dichlorobenzyl)parabanic acid]
Second: O=C(O)CN1C(=O)C(=O)N(Cc2ccc(Cl)c(Cl)c2)C1=O [Compound 47, 3-Carboxymethyl-1-(3,4-dichlorobenzyl)parabanic acid]
The inhibition at 0.5 µM of the first is lower: 61% for the first, 75% for the second.

First: O=C(O)CN1C(=O)C(=O)N(CCc2ccccc2)C1=O [Compound 49, 3-Carboxymethyl-1-(2-phenylethyl)parabanic acid]
Second: O=C(O)CN1C(=O)C(=O)N(CCc2ccccc2Cl)C1=O [Compound 52, 3-Carboxymethyl-1-(2-(2-chlorophenyl)ethyl)parabanic acid]
The inhibition at 0.5 µM of the first is lower: 30% for the first, 37% for the second.

Going from `COc1ccc(CCN2C(=O)C(=O)N(CC(=O)O)C2=O)cc1OC` [Compound 51, 3-Carboxymethyl-1-(2-(3,4-dimethoxyphenyl)ethyl)parabanic acid] to `O=C(O)CN1C(=O)C(=O)N(CCc2ccc(Cl)c(Cl)c2)C1=O` [Compound 54, 3-Carboxymethyl-1-(2-(3,4-dichlorophenyl)ethyl)parabanic acid], the inhibition at 0.5 µM rises from 42% to 57%.

Going from `O=C(O)CN1C(=O)C(=O)N(CCc2ccc(Br)cc2)C1=O` [Compound 53, 1-(2-(4-Bromophenyl)ethyl)-3-carboxymethylparabanic acid] to `O=C(O)CN1C(=O)C(=O)N(CCc2cccc([N+](=O)[O-])c2)C1=O` [Compound 55, 3-Carboxymethyl-1-(2-(3-nitrophenyl)ethyl)parabanic acid], the inhibition at 0.5 µM falls from 47% to 36%.
